Assay in all cases: relative viability (nuclei count vs DMSO), 5 days (fraction); higher = more cells survive
Compound in assay [1]: CC(C)CCN1c2nc(Nc3cc(F)c(O)c(F)c3)ncc2N(C)C(=O)C1C [BI-D1870] + CC(=O)Nc1cccc(-n2c(=O)n(C3CC3)c(=O)c3c(Nc4ccc(I)cc4F)n(C)c(=O)c(C)c32)c1 [Trametinib] (partner 0.02 µM)
In short, it runs like this: (§1)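 Lung cancer cell lines, seeded in 1536-well plates, were treated the following day by pin tool with a single drug or with five library-drug doses (not always all listed) in √10 steps on top of a fixed anchor-drug dose. Cells were fixed and nuclei stained in one step after 5 days, and nuclei were counted. Relative viability is the nuclei count for treated wells divided by that for vehicle wells, reported as medians of duplicate plates.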

Compound in assay [2]: O=c1ncccn1[C@@H]1O[C@H](CO)[C@@H](O)[C@H]1O [Zebularine] + C[C@@H](Oc1cc(-c2cnn(C3CCNCC3)c2)cnc1N)c1c(Cl)ccc(F)c1Cl [Crizotinib] (partner 1 µM)
In short, it runs like this: as §1

Compound in assay [3]: O=c1ncccn1[C@@H]1O[C@H](CO)[C@@H](O)[C@H]1O [Zebularine] + Cc1nc(NC(=O)N2CCC[C@H]2C(N)=O)sc1-c1ccnc(C(C)(C)C(F)(F)F)c1 [Alpelisib] (partner 2 µM)
In short, it runs like this: as §1

Compound in assay [4]: CC(C)CCN1c2nc(Nc3cc(F)c(O)c(F)c3)ncc2N(C)C(=O)C1C [BI-D1870] + Nc1ncn([C@H]2C[C@H](O)[C@@H](CO)O2)c(=O)n1 [Decitabine] (partner 2 µM)
Put shortly: as §1

For one cell line, relative viability results are on record in the supplement of paper PMC10307832.

Regarding UMC-11, the relative viability in assay [1] (first compound 0.04 µM) came to 0.701; in assay [1] (first compound 0.1265 µM), 0.682; in assay [1] (first compound 0.4 µM) it was 0.688; in assay [1] (first compound 1.265 µM) it was 0.774; in assay [1] (first compound 4 µM), 0.352; in assay [2] (first compound 1 µM), 0.666. Besides, the relative viability in assay [2] (first compound 3.162 µM) worked out at 0.489; in assay [2] (first compound 10 µM) it was 0.397; in assay [2] (first compound 31.62 µM), 0.374; in assay [2] (first compound 100 µM) it was 0.343; in assay [3] (first compound 1 µM) it was 1.08; in assay [3] (first compound 3.162 µM), 0.958. Besides, the relative viability amounted to 0.419 in assay [3] (first compound 10 µM); 0.789 in assay [3] (first compound 31.62 µM); 0.419 in assay [3] (first compound 100 µM); 0.581 in assay [4] (first compound 0.04 µM); 0.466 in assay [4] (first compound 0.1265 µM); 0.669 in assay [4] (first compound 0.4 µM). For the same cell line, the values for the relative viability in assay [4] (first compound 1.265 µM) and in assay [4] (first compound 4 µM) were 0.674 and 0.622, respectively.
